Assay results taken from patent publication US20110251379A1, “COMPOUNDS USEFUL FOR TREATING NEURODEGENERATIVE DISORDERS” (Satori Pharmaceuticals, Inc., priority 2010, published 2011).
Like-named read-outs stand apart in the source and are kept apart here.

How the values were obtained:
Type in all cases: cell-based
Aβ-38 = assay: MSD Human (6E10) Ab 3-PLEX elisa, conditioned media of 2B7 cells: Aβ-38; conditions: Homo sapiens, Aβ-38 (superscript a)
Summary of the method: (§1)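 Confluent 2B7 cells were treated with compounds for 5 hours at 37° C in media with 1% DMSO. Conditioned media, diluted 1:1 in blocking buffer, was incubated overnight at 4 °C or 2 h at room temperature on MSD 6E10 plates. Aβ levels were read against seven-point standard curves, and IC50 was obtained from 4-parameter fits of percent vehicle.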

Aβ-42 = assay: MSD Human (6E10) Ab 3-PLEX elisa, conditioned media of 2B7 cells: Aβ-42; conditions: Homo sapiens; for inhibition at 20 µM: Aβ-42, 20 μM; for IC50: Aβ-42 (superscript c)
Summary of the method: as §1

Aβ-40 = assay: MSD Human (6E10) Ab 3-PLEX elisa, conditioned media of 2B7 cells: Aβ-40; conditions: Homo sapiens; for IC50: Aβ-40 (superscript b); for inhibition at 20 µM: Aβ-40, 20 μM
Summary of the method: as §1

Structure (SMILES) | IC50 (Aβ-38; read-out: 50% reduction value) [nM] | inhibition at 20 µM (Aβ-42) [%] | IC50 (Aβ-40; read-out: 50% reduction value) [nM] | IC50 (Aβ-38; read-out: IC50 range) [nM] | IC50 (Aβ-42; read-out: 50% reduction value) [nM] | IC50 (Aβ-42; read-out: IC50 range) [nM] | IC50 (Aβ-40; read-out: IC50 range) [nM] | inhibition at 20 µM (Aβ-40) [%]
CCS[C@@H](C1C[C@@H](C)C2C(O1)[C@H](O)[C@@]1(C)C3CC[C@H]4C(C)(C)C(O[C@H]5CN(C6COC6)CCO5)CC[C@@]45C[C@@]35CC[C@]21C)C(C)(C)O (stereo partly shown) | 1000 to 10000 | 25 to 75 | > 10000 | – | – | – | – | –
CC(C)OC(C)(C)[C@H](O)C1C[C@@H](C)[C@H]2C(O1)[C@H](O)[C@@]1(C)C3CC[C@H]4C(C)(C)C(O)CC[C@@]45C[C@@]35CC[C@]21C (stereo partly shown) | 1000 to 10000 | 25 to 75 | > 10000 | – | – | – | – | –
CCOC(C)(C)[C@H](O)C1C[C@@H](C)[C@H]2C(O1)[C@H](O)[C@@]1(C)C3CC[C@H]4C(C)(C)C(O)CC[C@@]45C[C@@]35CC[C@]21C (stereo partly shown) | 1000 to 10000 | < 25 | > 10000 | – | – | – | – | –
CC(C)C(=O)N1CCOC(OC2CC[C@]34C[C@]35CC[C@]3(C)[C@@H]6C(OC([C@H](OC(=O)N7CCC7)C(C)C)C[C@H]6C)[C@H](O)[C@@]3(C)C5CC[C@H]4C2(C)C)C1 (stereo partly shown) | < 1000 | – | 1000 to 10000 | < 1000 | < 1000 | < 1000 | > 10000 | –
CC(C)CC(=O)N1CCOC(OC2CC[C@]34C[C@]35CC[C@]3(C)[C@@H]6C(OC([C@H](OC(=O)N7CCC7)C(C)C)C[C@H]6C)[C@H](O)[C@@]3(C)C5CC[C@H]4C2(C)C)C1 (stereo partly shown) | 1000 to 10000 | – | 1000 to 10000 | 1000 to 10000 | 1000 to 10000 | 1000 to 10000 | 1000 to 10000 | –
CC(C)[C@@H](OC(=O)N1CCC1)C1C[C@@H](C)[C@H]2C(O1)[C@H](O)[C@@]1(C)C3CC[C@H]4C(C)(C)C(OC(=O)N5CC(NCC(F)(F)F)C5)CC[C@@]45C[C@@]35CC[C@]21C (stereo partly shown) | 1000 to 10000 | – | > 10000 | – | < 1000 | – | – | –
CS[C@@H](C1C[C@@H](C)[C@H]2C(O1)[C@H](O)[C@@]1(C)C3CC[C@H]4C(C)(C)C(O)CC[C@@]45C[C@@]35CC[C@]21C)C(C)(C)O (stereo partly shown) | < 1000 | – | > 10000 | – | 1000 to 10000 | – | – | –
C[C@@H]1CC([C@H]([S+](C)[O-])C(C)(C)O)OC2[C@H]1[C@@]1(C)CC[C@@]34C[C@@]35CCC(O)C(C)(C)[C@@H]5CCC4[C@]1(C)[C@H]2O (stereo partly shown) | 1000 to 10000 | 25 to 75 | – | – | – | – | – | 25 to 75
C[C@@H]1CC([C@@H](C(C)(C)O)S(C)(=O)=O)OC2[C@H]1[C@@]1(C)CC[C@@]34C[C@@]35CCC(O)C(C)(C)[C@@H]5CCC4[C@]1(C)[C@H]2O (stereo partly shown) | 1000 to 10000 | 25 to 75 | – | – | – | – | – | 25 to 75
CC[S+]([O-])[C@@H](C1C[C@@H](C)[C@H]2C(O1)[C@H](O)[C@@]1(C)C3CC[C@H]4C(C)(C)C(O[C@H]5CN(C6COC6)CCO5)CC[C@@]45C[C@@]35CC[C@]21C)C(C)(C)O (stereo partly shown) | 1000 to 10000 | 25 to 75 | – | – | – | – | – | 25 to 75
CO[C@@H](C1C[C@@H](C)[C@H]2C(O1)[C@H](O)[C@@]1(C)C3CC[C@H]4C(C)(C)C(OC(=O)N5CCC5)CC[C@@]45C[C@@]35CC[C@]21C)C(C)(C)O (stereo partly shown) | 1000 to 10000 | – | > 10000 | – | 1000 to 10000 | – | – | –
CNC(=O)O[C@H](C(C)C)C1C[C@@H](C)[C@H]2C(O1)[C@H](O)[C@@]1(C)C3CC[C@H]4C(C)(C)C(OC(=O)NC5CNC5)CC[C@@]45C[C@@]35CC[C@]21C (stereo partly shown) | < 1000 | – | 1000 to 10000 | – | < 1000 | < 1000 | – | –
CCO[C@@H]([C@H]1C[C@@H](C)[C@H]2[C@H](O1)[C@H](O)[C@@]1(C)[C@@H]3CC[C@H]4C(C)(C)[C@@H](OC(=O)NC5CN(C)C5)CC[C@@]45C[C@@]35CC[C@]21C)C(C)(C)O | < 1000 | – | < 1000 | < 1000 | < 1000 | < 1000 | 1000 to 10000 | –
CCO[C@@H]([C@H]1C[C@@H](C)[C@H]2[C@H](O1)[C@H](O)[C@@]1(C)[C@@H]3CC[C@H]4C(C)(C)[C@@H](OC5CNCCO5)CC[C@@]45C[C@@]35CC[C@]21C)C(C)(C)O (stereo partly shown) | < 1000 | – | 1000 to 10000 | < 1000 | < 1000 | < 1000 | 1000 to 10000 | –
CCO[C@@H]([C@H]1C[C@@H](C)[C@H]2[C@H](O1)[C@H](O)[C@@]1(C)[C@@H]3CC[C@H]4C(C)(C)[C@@H](OC5CN(C)CCO5)CC[C@@]45C[C@@]35CC[C@]21C)C(C)(C)O (stereo partly shown) | < 1000 | – | 1000 to 10000 | < 1000 | < 1000 | < 1000 | 1000 to 10000 | –
CCO[C@@H]([C@H]1C[C@@H](C)[C@H]2[C@H](O1)[C@H](O)[C@@]1(C)[C@@H]3CC[C@H]4C(C)(C)[C@@H](OC5CN(C(=O)C(C)C)CCO5)CC[C@@]45C[C@@]35CC[C@]21C)C(C)(C)O (stereo partly shown) | < 1000 | – | 1000 to 10000 | < 1000 | < 1000 | < 1000 | 1000 to 10000 | –
C=C(C)CO[C@@H](C1C[C@@H](C)[C@H]2C(O1)[C@H](O)[C@@]1(C)C3CC[C@H]4C(C)(C)C(O[C@H]5CN(C6COC6)CCO5)CC[C@@]45C[C@@]35CC[C@]21C)C(C)(C)O (stereo partly shown) | < 1000 | – | 1000 to 10000 | < 1000 | < 1000 | < 1000 | – | –
CC(C)CO[C@@H](C1C[C@@H](C)[C@H]2C(O1)[C@H](O)[C@@]1(C)C3CC[C@H]4C(C)(C)C(O[C@H]5CN(C6COC6)CCO5)CC[C@@]45C[C@@]35CC[C@]21C)C(C)(C)O (stereo partly shown) | < 1000 | – | 1000 to 10000 | < 1000 | 1000 to 10000 | – | 1000 to 10000 | –
CO[C@@H]([C@H]1C[C@@H](C)[C@H]2[C@H](O1)[C@H](O)[C@@]1(C)[C@@H]3CC[C@H]4C(C)(C)[C@@H](OC5CN(C(=O)C(C)C)CCO5)CC[C@@]45C[C@@]35CC[C@]21C)C(C)(C)O (stereo partly shown) | < 1000 | – | 1000 to 10000 | < 1000 | < 1000 | < 1000 | – | –
C[C@@H]1CC([C@@H]2OCOC2(C)C)OC2[C@H]1[C@@]1(C)CC[C@@]34C[C@@]35CCC(O[C@H]3CN(C6COC6)CCO3)C(C)(C)[C@@H]5CCC4[C@]1(C)[C@H]2O (stereo partly shown) | 1000 to 10000 | – | – | – | > 10000 | – | – | 25 to 75
C=C(C)CO[C@@H](C1C[C@@H](C)[C@H]2C(O1)[C@H](O)[C@@]1(C)C3CC[C@H]4C(C)(C)C(O)CC[C@@]45C[C@@]35CC[C@]21C)C(C)(C)O (stereo partly shown) | < 1000 | – | 1000 to 10000 | < 1000 | < 1000 | < 1000 | 1000 to 10000 | –
CO[C@@H](C1C[C@@H](C)[C@H]2C(O1)[C@H](O)[C@@]1(C)C3CC[C@H]4C(C)(C)C(OC(=O)NC5COC5)CC[C@@]45C[C@@]35CC[C@]21C)C(C)(C)O (stereo partly shown) | < 1000 | – | – | – | < 1000 | < 1000 | – | 25 to 75
CO[C@@H](C1C[C@@H](C)[C@H]2C(O1)[C@H](O)[C@@]1(C)C3CC[C@H]4C(C)(C)C(OC(=O)NC5CN(C)C5)CC[C@@]45C[C@@]35CC[C@]21C)C(C)(C)O (stereo partly shown) | < 1000 | – | 1000 to 10000 | 1000 to 10000 | < 1000 | < 1000 | 1000 to 10000 | –
CO[C@@H](C1C[C@@H](C)[C@H]2C(O1)[C@H](O)[C@@]1(C)C3CC[C@H]4C(C)(C)C(OC(=O)NC5CNC5)CC[C@@]45C[C@@]35CC[C@]21C)C(C)(C)O (stereo partly shown) | < 1000 | – | 1000 to 10000 | – | < 1000 | < 1000 | 1000 to 10000 | –
CC(C)[C@@H](OC(=O)N1CCC1)C1C[C@@H](C)[C@H]2C(O1)[C@H](O)[C@@]1(C)C3CC[C@H]4C(C)(C)C(OC(=O)N5CCN(S(C)(=O)=O)CC5)CC[C@@]45C[C@@]35CC[C@]21C (stereo partly shown) | < 1000 | – | 1000 to 10000 | < 1000 | < 1000 | < 1000 | 1000 to 10000 | –
